Patent publication US11014956B2, “Compositions and methods for altering second messenger signaling” (Memorial Sloan Kettering Cancer Center, priority 2013, dated 2021)

Key:
Raw264.7 cells = settings: concentrations as low as; cited from earlier work
THP 1 cells = settings: concentrations as low as; cited from earlier work
cGAS = biological target: T1, cGAS (Mus musculus, UniProt Q8C6L5); assay: cGAS activity assay, c[G(2′,5′)pA(3′,5′)p] formation by thin-layer chromatography; type: biochemical; settings: cGAS plus dsDNA
T1 construct: Purified recombinant full length (fl, amino acids 1-507) and truncated (tr, amino acids 147-507) murine cGAS; His6-SUMO (N, cleaved yes); made in house; host or cells: E. coli BL21 (DE3) RIL
T1 sequence (Q8C6L5 whole entry, the tested form may be a part): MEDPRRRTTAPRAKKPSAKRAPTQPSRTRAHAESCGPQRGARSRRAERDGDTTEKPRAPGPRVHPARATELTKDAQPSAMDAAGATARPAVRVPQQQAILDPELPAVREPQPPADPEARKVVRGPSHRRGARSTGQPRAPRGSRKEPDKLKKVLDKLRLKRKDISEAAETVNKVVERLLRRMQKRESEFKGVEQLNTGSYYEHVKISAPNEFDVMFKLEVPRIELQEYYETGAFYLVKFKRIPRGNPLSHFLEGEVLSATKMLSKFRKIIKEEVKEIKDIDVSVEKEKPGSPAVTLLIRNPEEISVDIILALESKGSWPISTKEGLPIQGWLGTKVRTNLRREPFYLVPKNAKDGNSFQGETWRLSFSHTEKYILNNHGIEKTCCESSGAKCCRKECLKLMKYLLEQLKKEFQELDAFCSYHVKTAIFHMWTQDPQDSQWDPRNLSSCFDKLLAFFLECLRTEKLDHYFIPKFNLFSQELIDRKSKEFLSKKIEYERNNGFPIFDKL
Description: To validate the structural results, we established an activity assay using thin-layer chromatography (FIG. 11) and monitored cyclic dinucleotide c[G(2′,5′)pA(3′,5′)p] formation from ATP and GTP using purified recombinant full-length and truncated cGAS proteins. cGAS required the presence of dsDNA and Mg^2+ or Mn^2+ for activity (FIG. 5A-B). […] The trace amount of c[G(2′,5′)pA(3′,5′)p]detected for the specific ssDNA used in this experiment was attributable to a stretch of sequence complementarity, and the substitution of G by 8-oxoguanine (8-oxoG) was sufficient to destabilize its predicted interaction and eliminate the residual cGAS activity.
Purified recombinant full length (fl, amino acids 1-507) and truncated (tr, amino acids 147-507) murine cGAS, including truncated mutant versions 1-6, were incubated in 20 μL reactions containing: 1 μM cGAS, 3.3 μM dsDNA, 5 mM MgCl2, 150 mM NaCl, 20 mM Tris-HCl, pH 7.5 at 25° C., 1 mM DTT, 10% glycerol, 1 mM each of nucleotides (typically ATP and GTP), and α^32P or γ^32P radiolabelled NTPs or dNTPs at 37° C. for 40 min. Reactions were stopped by addition of 20 μL of 50 mM EDTA. 2 μL of reaction solution was spotted onto high-performance TLC plates (HPTLC silica gel, 60 Å pores, F254, 10×10 cm, cat #1.05628.0001, EMD Millipore) and products were separated with Solvent 1 (NH4HCO3:C2H5OH:H2O [0.2 M:30%:70%], w:v:v) or 2 (NH4HCO3:C2H5OH:H2O [0.025 M:30%:70%], w:v:v) at 25° C. for 1 h. Reaction products were visualized by UV (254 nm) and phosphorimaging (Typhoon FLA 9500, GE Healthcare). Images were processed using Adobe Photoshop and Illustrator CS5. The TLC conditions used were largely based on a protocol established to separate 3′,5′ cAMP (Higashida et al, 2012).
The yield of c[G(2′,5′)pA(3′,5′)p] generated was calculated by densitometry analysis of TLC experiments, using FIJI (ImageJ 1.47i) or spectrophotemetrically (absorbance at 260 nm, E260=25.4×10^3) after purification from HPLC. For densitometry analyses, the fraction of α^32P-labelled c[G(2′,5′)pA(3′,5′)p] over total radioactivity per lane (c[G(2′,5′)pA(3′,5′)p]plus remaining α^32P-labelled ATP or GTP) was calculated.

SMILES | concentration at which production of interferon is stimulated (Raw264.7 cells) [nM] | concentration at which production of interferon is stimulated (THP 1 cells) [nM] | cyclic dinucleotide formation with the nucleotide as cGAS substrate in place of GTP or ATP (in words) (cGAS)
Nc1nc2c(ncn2[C@@H]2O[C@@H]3COP(=O)(O)O[C@H]4[C@@H](O)[C@H](n5cnc6c(N)ncnc65)O[C@@H]4COP(=O)(O)O[C@H]3[C@H]2O)c(=O)[nH]1 [c[G(3′,5′)pA(3′,5′)p]] | 10 | 10 | 
Nc1nc2c(ncn2[C@@H]2O[C@H](COP(=O)(O)OP(=O)(O)O)[C@@H](O)[C@H]2O)c(=O)[nH]1 [GDP, reference compound] |  |  | reduced amount of the cylic-dinucleotide
